Results reported in patent US11951094B2, “TLR2 modulator compounds, pharmaceutical compositions and uses thereof” (Axial Therapeutics, Inc., priority 2020, dated 2024).

Biological target: TLR2 (Homo sapiens, UniProt O60603)
Assay: TLR2 agonist screening assay, HEK-Blue TLR2 reporter cell line (NF-kB-driven SEAP, absorbance at 600 nm)
Assay type: cell-based
Parameters: host or cells: HEK-293 (HEK-Blue TLR2 reporter cell line)
Settings: HEK-Blue TLR2 reporter cells, agonist mode; average of all runs (Table 4)
Method in brief: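 EC50 values come from dilution series of agonist on TLR2-transfected HEK-293 reporter cells carrying an NF-kB-SEAP construct. Cells sat overnight with compound in substrate-containing Detection medium at 1% DMSO, and secreted phosphatase activity was quantified as absorbance at 600 nm.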

TLR2, sequence (O60603 21-784): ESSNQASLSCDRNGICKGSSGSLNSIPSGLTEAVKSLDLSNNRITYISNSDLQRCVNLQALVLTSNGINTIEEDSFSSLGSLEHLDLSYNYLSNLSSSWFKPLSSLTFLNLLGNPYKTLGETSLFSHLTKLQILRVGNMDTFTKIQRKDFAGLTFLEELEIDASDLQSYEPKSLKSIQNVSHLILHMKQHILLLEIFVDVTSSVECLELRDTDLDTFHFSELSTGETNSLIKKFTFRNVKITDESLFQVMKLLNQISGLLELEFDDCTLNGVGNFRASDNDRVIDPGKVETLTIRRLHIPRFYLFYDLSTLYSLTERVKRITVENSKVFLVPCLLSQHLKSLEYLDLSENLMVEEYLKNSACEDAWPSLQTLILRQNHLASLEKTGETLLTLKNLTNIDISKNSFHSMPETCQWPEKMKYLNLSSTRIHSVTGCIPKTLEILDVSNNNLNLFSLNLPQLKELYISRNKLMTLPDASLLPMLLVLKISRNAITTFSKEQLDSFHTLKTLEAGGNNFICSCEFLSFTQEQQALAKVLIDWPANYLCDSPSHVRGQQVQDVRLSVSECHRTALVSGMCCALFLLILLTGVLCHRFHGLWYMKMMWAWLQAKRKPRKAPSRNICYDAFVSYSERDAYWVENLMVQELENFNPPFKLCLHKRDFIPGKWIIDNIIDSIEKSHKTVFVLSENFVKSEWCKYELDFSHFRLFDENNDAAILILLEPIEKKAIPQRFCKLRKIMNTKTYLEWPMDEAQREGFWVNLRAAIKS

First: CCCCCCCCCCCCCCNC(=O)C1CCN(Cc2ccc(C(=O)N3C[C@@H](C(=O)N[C@H]4C[C@@H]4c4ccccc4)[C@H](C(=O)N[C@H]4C[C@@H]4c4ccccc4)C3)cc2)C1=O (stereo partly drawn) [Compound 142, (3S,4S)-1-(4-((2-oxo-3-(tetradecylcarbamoyl)pyrrolidin-1-yl)methyl)benzoyl)-N3,N4-bis((1S,2R)-2-phenylcyclopropyl)pyrrolidine-3,4-dicarboxamide]
Second: CCCCCCCCCCCCCCNC(=O)[C@H]1CN(Cc2ccc(C(=O)N3C[C@@H](C(=O)N[C@H]4C[C@@H]4c4ccccc4)[C@H](C(=O)N[C@H]4C[C@@H]4c4ccccc4)C3)cc2)C(=O)CN1C [Compound 092, (3S,4S)-1-(4-(((R)-4-methyl-2-oxo-5-(tetradecylcarbamoyl)piperazin-1-yl)methyl)benzoyl)-N3,N4-bis((1S,2R)-2-phenylcyclopropyl)pyrrolidine-3,4-dicarboxamide]
The EC50 of the first is higher: over 1000 nM for the first, 51 to 350 nM for the second.

Compared with `CCCCCCCC[C@@H]1CN(C(=O)c2ccc(C(=O)N3C[C@@H](C(=O)N[C@H]4C[C@@H]4c4ccccc4)[C@H](C(=O)N[C@H]4C[C@@H]4c4ccccc4)C3)cc2)C[C@H]1C(=O)NCCCCCC` (single isomer, unassigned) [Compound 111], `CCCCCCCCCCCCCCNC(=O)[C@H]1CN(C(=O)c2ccc(C(=O)N3C[C@@H](C(=O)N[C@H]4C[C@@H]4c4ccccc4)[C@H](C(=O)N[C@H]4C[C@@H]4c4ccccc4)C3)cc2)C[C@@H]1O` (single isomer, unassigned) [Compound 106, (3S,4S)-1-(4-((3S*,4R*)-3-hydroxy-4-(tetradecylcarbamoyl)pyrrolidine-1-carbonyl)benzoyl)-N3,N4-bis((1S,2R)-2-phenylcyclopropyl)pyrrolidine-3,4-dicarboxamide] is higher in EC50: 0.1 to 50 nM for the first, 51 to 350 nM for the second. The first is the more potent here.

Compared with `CCCCCCCC(=O)N[C@@H](CNC(=O)c1ccc(C(=O)N2C[C@@H](C(=O)N[C@H]3C[C@@H]3c3ccccc3)[C@H](C(=O)N[C@H]3C[C@@H]3c3ccccc3)C2)cc1)C(=O)NCCCCCC` [Compound 173, (3S,4S)-1-(4-(((S)-3-(hexylamino)-2-octanamido-3-oxopropyl)carbamoyl)benzoyl)-N3,N4-bis((1S,2R)-2-phenylcyclopropyl)pyrrolidine-3,4-dicarboxamide], `CCCCCCCC(=O)N1CCCN(C(=O)c2ccc(C(=O)N3C[C@@H](C(=O)N[C@H]4C[C@@H]4c4ccccc4)[C@H](C(=O)N[C@H]4C[C@@H]4c4ccccc4)C3)cc2)C[C@@H]1C(=O)NCCCCCC` (single isomer, unassigned) [Compound 146] is higher in EC50: 0.1 to 50 nM for the first, 351 to 1000 nM for the second. The first is the more potent here.

Compared with `CO[C@H]1CN(C(=O)c2ccc(C(=O)N3C[C@@H](C(=O)N[C@H]4C[C@@H]4c4ccccc4)[C@H](C(=O)N[C@H]4C[C@@H]4c4ccccc4)C3)cc2)C[C@@H]1NC(=O)NCCc1ccc(F)cc1` [Compound 182, (3S,4S)-1-(4-((3S,4S)-3-(3-(4-fluorophenethyl)ureido)-4-methoxypyrrolidine-1-carbonyl)benzoyl)-N3,N4-bis((1S,2R)-2-phenylcyclopropyl)pyrrolidine-3,4-dicarboxamide], `O=C(N[C@H]1C[C@@H]1c1ccccc1)[C@@H]1CN(C(=O)c2ccc(C(=O)N3C[C@@H](C(=O)N[C@H]4C[C@@H]4c4cccnc4)[C@H](C(=O)N[C@H]4C[C@@H]4c4cccnc4)C3)cc2)C[C@H]1C(=O)N[C@H]1C[C@@H]1c1ccccc1` (single isomer, unassigned) [Compound 094, (3S,4S)-1-(4-((3S,4S)-3,4-bis(((1S*,2R*)-2-(pyridin-3-yl)cyclopropyl)carbamoyl)pyrrolidine-1-carbonyl)benzoyl)-N3,N4-bis((1S,2R)-2-phenylcyclopropyl) pyrrolidine-3,4-dicarboxamide] is lower in EC50: over 1000 nM for the first, 51 to 350 nM for the second. The second is the more potent here.

For `CCCCCCCCCCCCCCC(=O)NC1CCN(C(=O)c2cccc(C(=O)N3C[C@@H](C(=O)N[C@H]4C[C@@H]4c4ccccc4)[C@H](C(=O)N[C@H]4C[C@@H]4c4ccccc4)C3)c2)CC1` [Compound 166, (3S,4S)-1-(3-(4-pentadecanamidopiperidine-1-carbonyl)benzoyl)-N3,N4-bis((1S,2R)-2-phenylcyclopropyl)pyrrolidine-3,4-dicarboxamide], the EC50 was over 1000 nM.
